{"source": "paper PMC11409218", "about": "“Metal(triphenylphosphine)-atovaquone Complexes: Synthesis, Antimalarial Activity, and Suppression of Heme Detoxification” (Inorganic Chemistry, 2024)", "key": {"[1]": {"tested_on": "J774 cells", "assay": "Cytotoxicity in mammalian cells (CellTiter-Glo), J774", "assay_type": "cell-based", "conditions": "J774 murine macrophage line; 72 h drug incubation; mean of three experiments; read-out: mammalian cells CC50 (±SEM), J774", "description": "(§1) Cell lines J774 and HepG2 were incubated with the drug for 72 h, the same time frame as employed to determine antimalarial activity. Cytotoxicity was evaluated in parallel with ATV as a representative parental drug, while doxorubicin was used as a standard cytotoxic drug. These experiments were also used to estimate the in vitro selectivity index (Table 2).\n(§2) Doxorubicin chloridrate (Eurofarma, São Paulo, Brazil) was used as a positive control, while untreated cells were employed as negative controls. Bioluminescence readings were performed using a Filtermax F5Multi-Mode instrument (Molecular Devices, Sunnyvale, CA) using the CellTiter-Glo kit (Promega Corporation, Madison, USA). Three independent experiments were performed and CC50 values were calculated."}, "[2]": {"tested_on": "P. falciparum 3D7 (CQ-susceptible strain)", "assay": "Antiplasmodial activity, asexual blood stages, HRP2 ELISA-based assay, 3D7 strain", "assay_type": "cell-based, Plasmodium falciparum", "conditions": "read-out: P. falciparum IC50 (±SEM), 3D7", "source_text": "We determined the half-maximal inhibitory concentration (IC50) of the complexes against asexual blood stages of P. falciparum using CQ-susceptible and CQ-resistant strains (Table 2). […]. Two strains were selected for the tests: the CQ-susceptible 3D7 strain (isolated in West Africa; obtained from MR4, VA, USA), and the CQ-resistant W2 strain (isolated in Indochina; obtained from MR4, VA, USA). Both were maintained in culture in RPMI 1640 (Invitrogen, Paisley, UK), supplemented with 10% human serum (Abcys S.A. Paris, France), and buffered with 25 mM HEPES and 25 mM NaHCO3. Parasites were grown in A-positive human blood (Etablissement Français du Sang, Marseille, France) in controlled atmospheric conditions that consisted of 10% O2, 5% CO2, and 85% N2 at 37 °C with 95% humidity. […]\nFor in vitro isotopic microtests, 25 μL/well of antimalarial drug and 200 μL/well of parasitized red blood cell suspension (final parasitemia 0.5%, final hematocrit 1.5%) were distributed into 96-well plates. The plates were incubated for 72 h at 37 °C in 85% N2, 10% O2, 5% CO2. After freezing and then thawing, the hemolyzed cultures were homogenized by vortexing the plates. The drug susceptibility assay was performed using the HRP2 ELISA-based assay of the Malaria Ag Celisa kit (ref KM2159, Cellabs PTY LDT, Brookvale, Australia), as described previously.[72] […] […]. IC50 are expressed as means of at least 5 to 7 independent experiments."}, "[3]": {"tested_on": "P. falciparum W2 (CQ-resistant strain)", "assay": "Antiplasmodial activity, asexual blood stages, HRP2 ELISA-based assay, W2 strain", "assay_type": "cell-based, Plasmodium falciparum", "conditions": "read-out: P. falciparum IC50 (±SEM), W2", "description": "The potency of the metal complexes to inhibit parasite growth was also examined in comparison with ATV.\nThe two strains were synchronized twice with sorbitol before use,[69] and clonality was verified every 15 days through PCR genotyping of the polymorphic genetic markers msp1 and msp2 and microsatellite loci.[70],[71] Compounds were resuspended in DMSO and then diluted in RPMI-DMSO (99v/1v) to obtain final concentrations ranging from 0.25 to 20000 nM.\nAfter freezing and then thawing, the hemolyzed cultures were homogenized by vortexing the plates. The drug susceptibility assay was performed using the HRP2 ELISA-based assay of the Malaria Ag Celisa kit (ref KM2159, Cellabs PTY LDT, Brookvale, Australia), as described previously.[72]"}, "[4]": {"assay": "Interaction with ferriprotoporphyrin IX, spectroscopic titration of Soret band at 402 nm", "assay_type": "binding", "conditions": "pH 7.4; 40% aqueous DMSO; 1:1 complexation model; mean and SEM of three experiments", "description": "The association constants (Log K) of the compounds with hemin were determined at pH 7.4 using a 1:1 complexation model with the equation proposed by Egan et al.[52] for the nonlinear least-squares fitting (Figure 2, Table 2).\nFollowing a procedure described in the literature,[52] the association constant (Log K) of the drugs with ferriprotoporphyrin IX was determined in 40% aqueous DMSO. A stock solution of hemin chloride was prepared by adding 3.5 mg hemin to 10 mL DMSO and adjusted to pH 7.5. A working solution of hemin in 40% DMSO was further prepared by mixing 140 μL hemin stock solution, 5 mL distilled water, 3.86 mL DMSO, and 1 mL 0.2 M Tris (tris(hydroxymethyl)aminomethane) buffer. Aliquots of compounds were added to this working hemin solution. Blank solutions containing only hemin or compounds were prepared to subtract the absorbance of the compounds. […] Binding affinity was determined using the equation A = (A0 + A∞K[C])/(1 + K[C]) for a 1:1 complexation model using nonlinear least-squares fitting, where A0 is the absorbance of Fe(III)PPIX, A∞ is the absorbance of the compound–hemin adduct at saturation, and K is the association constant. Three independent experiments were performed."}, "[5]": {"tested_on": "β-hematin crystal formation", "assay": "β-Hematin crystal formation by FTIR spectroscopy", "assay_type": "biochemical", "conditions": "acid-buffered medium pH 5; 1:3 hematin/compound ratio", "description": "The ability of these compounds to inhibit the formation of β-hematin crystals was investigated by IR spectroscopy (Figure 2f). Of note, β-hematin crystal formation was assayed in an acid-buffered medium, while hemin titration was assayed at neutral pH. […]. For both ATV and complexes 1–3, there may have been overlapping between a decrease in the (C = O) band of heme species and a (C = O) band of quinone. However, there was no danger of overlaps in the (C–O) band of heme species at 1210 cm^–1, since these species are absent from the drugs.\nThe conversion of hematin into β-hematin crystals was determined by FTIR spectroscopy as described previously.[52] In a microtube, 20 mg hemin and three equivalents of the compounds were dissolved in 3 mL 0.1 M NaOH solution and stirred for 30 min at 60 °C. Then, 0.3 mL 0.1 M HCl and 1.7 mL sodium acetate buffer (10 M, pH 5) were added at the same temperature. […] After incubation for 120 min, the reaction mixture was cooled on ice for 10 min and then centrifuged and washed with water to remove salts. Resulting crystals were dried and IR spectra were obtained using ATR mode.[66]−[68]"}, "[6]": {"assay": "Cytotoxicity in mammalian cells (CellTiter-Glo), J774", "assay_type": "cell-based", "conditions": "mouse, J774 macrophage cells; J774 murine macrophage line; 72 h drug incubation; mean of three experiments; read-out: mammalian cells CC50 (±SEM), J774", "description": "as §1, §2"}, "[7]": {"assay": "Cytotoxicity in mammalian cells (CellTiter-Glo), HepG2", "assay_type": "cell-based", "conditions": "HepG2 hepatocellular carcinoma cells; HepG2 human hepatocellular carcinoma line; 72 h drug incubation; mean of three experiments; read-out: mammalian cells CC50 (±SEM), HepG2", "description": "as §1, §2"}, "[8]": {"conditions": "CQ-susceptible 3D7 strain, 72 h drug incubation, mean of five to seven experiments"}, "[9]": {"conditions": "CQ-resistant W2 strain, 72 h drug incubation, mean of five to seven experiments"}}, "note": "Like-named read-outs stand apart in the source and are kept apart here.", "data": [{"smiles": "[Cl][Au].c1ccc(P(c2ccccc2)c2ccccc2)cc1", "note": "[AuClPPh3, [Au(PPh3)Cl]]", "values": [{"measurement": "CC50", "setting": "[1]", "result": "4.1 ± 0.8", "unit": "µM"}, {"measurement": "IC50", "setting": "[2]; [8]", "result": "1.43 ± 0.309", "unit": "µM"}, {"measurement": "IC50", "setting": "[3]; [9]", "result": "3.29 ± 0.629", "unit": "µM"}]}, {"smiles": "CCN(CC)CCCC(C)Nc1ccnc2cc(Cl)ccc12", "note": "(stereo not drawn) [CQ, chloroquine]", "values": [{"measurement": "IC50", "setting": "[2]; Plasmodium falciparum, 3D7, 72 h", "result": "0.0238 ± 0.0055", "unit": "µM"}, {"measurement": "log K (association constant of drug binding to hemin)", "setting": "[4]", "result": "4.78 ± 0.01"}, {"measurement": "IC50", "setting": "[3]; Plasmodium falciparum, W2, 72 h", "result": "0.526 ± 0.126", "unit": "µM"}, {"measurement": "inhibition of β-hematin crystal formation (IR bands 1663 and 1210 cm^–1)", "setting": "[5]", "result": "decreased simultaneously in these two bands"}]}, {"smiles": "COc1cccc2c1C(=O)c1c(O)c3c(c(O)c1C2=O)C[C@@](O)(C(=O)CO)C[C@@H]3O[C@H]1C[C@H](N)[C@H](O)[C@H](C)O1", "note": "[DOX, Doxorubicin, reference compound]", "values": [{"measurement": "CC50 at 72 h", "setting": "[6]", "result": "0.44 ± 0.31", "unit": "µM"}, {"measurement": "CC50 at 72 h", "setting": "[7]", "result": "< 0.12", "unit": "µM"}]}, {"smiles": "O=[N+]([O-])[O-].[Cu+].c1ccc(P(c2ccccc2)c2ccccc2)cc1.c1ccc(P(c2ccccc2)c2ccccc2)cc1", "note": "[[Cu(PPh3)2NO3]]", "values": [{"measurement": "CC50", "setting": "[1]", "result": "> 80", "unit": "µM"}, {"measurement": "IC50", "setting": "[2]; [8]", "result": "> 20", "unit": "µM"}, {"measurement": "IC50", "setting": "[3]; [9]", "result": "> 20", "unit": "µM"}]}]}
